Values of other authors as cited in patent EP0438873A1, “Inhibitor of ribonucleotide reductase of herpes viruses” (MERCK & CO. INC., priority 1989, dated 1991).
Where no end group is shown, it is not given here.

System: ribonucleotide reductase enzyme of herpes simplex virus
Settings: from Dutia et al., Cohen et al., U.S. Patent No. 4,795,740

| Substance | inhibited in vitro the activity of this enzyme (HSV ribonucleotide reductase) |
| --- | --- |
| Tyr Ala Gly Ala Val Val Asn Asp Leu (YAGAVVNDL; printed: Tyr Ala Gly Ala Val Val Asn Asp Leu) [the nonapeptide disclosed by Dutia et al. and Cohen et al] | inhibited |
| YGAVVNDL [8-desalanine homolog of the nonapeptide, disclosed by Dutia et al] | inhibited |
